We go through twelve molecules from US20080214529A1, “SATURATED FUSED [1,2-b]PYRIDAZINONE COMPOUNDS” (priority 2006, published 2008).

Where a name gives a salt, the structure may show the parent alone.

Chain of NS5B polymerase (P26663 2420-3010): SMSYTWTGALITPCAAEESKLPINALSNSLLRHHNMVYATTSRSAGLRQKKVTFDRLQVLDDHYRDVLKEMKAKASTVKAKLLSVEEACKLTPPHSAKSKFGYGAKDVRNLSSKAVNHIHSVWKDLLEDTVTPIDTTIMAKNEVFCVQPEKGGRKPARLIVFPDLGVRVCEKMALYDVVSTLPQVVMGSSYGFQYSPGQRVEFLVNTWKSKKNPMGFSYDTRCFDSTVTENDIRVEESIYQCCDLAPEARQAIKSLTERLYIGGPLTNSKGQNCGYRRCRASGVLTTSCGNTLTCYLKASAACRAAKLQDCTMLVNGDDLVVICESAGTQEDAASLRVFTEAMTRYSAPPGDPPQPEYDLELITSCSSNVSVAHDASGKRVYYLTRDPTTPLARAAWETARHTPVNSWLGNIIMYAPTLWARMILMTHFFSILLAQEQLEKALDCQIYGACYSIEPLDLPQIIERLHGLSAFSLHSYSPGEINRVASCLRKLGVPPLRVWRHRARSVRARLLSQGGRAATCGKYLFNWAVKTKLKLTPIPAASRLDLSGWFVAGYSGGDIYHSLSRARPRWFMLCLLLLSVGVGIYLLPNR

One series addresses NS5B polymerase (Hepatitis C virus genotype 1b, UniProt P26663). Briefly: biochemical. Particulars: NS5B polymerase inhibition; 20 nM enzyme, 75 min at 28° C. On the procedure: Compounds were tested for HCV polymerase inhibition. Assays were performed in a 96-well streptavidin-coated FlashPlate using 20 nM enzyme, 0.5 μCi of [α-^33P]GTP, 0.6 μM GTP, and 250 nM 5′biotinylated oligo (rG13)/poly rC in 20 mM Tris-HCl, pH 7.5, 5 mM MgCl2, 5 mM dithiothreitol, 0.1 g/L bovine serum albumin, and 100 U/mL RNAse inhibitor. The reaction was stopped by aspiration after 75 min at 28° C. and the plate was washed several times. After washing and drying the plate, incorporated radioactivity was counted using a Microbeta scintillation counter. IC50 values were calculated relative to the uninhibited control and inhibition data were fitted to a 4-parameter IC50 equation.
One may read the IC50 as the point on the concentration scale where inhibition reaches its midpoint. Lower therefore signals greater potency in that assay. In turn, `CS(=O)(=O)Nc1ccc2c(c1)S(=O)(=O)N=C(C1=C(O)C3CC4CCCC4N3N(C3CCCCC3)C1=O)N2` (single isomer, unassigned) [10 Isomer 1] came in with an IC50 of 200 to 3000 nM.
With `CS(=O)(=O)Nc1ccc2c(c1)S(=O)(=O)N=C(C1=C(O)C3CCCCN3N(Cc3ccc(F)cc3)C1=O)N2` (stereo not drawn) [Example 1, N-{3-[1-(4-Fluoro-benzyl)-4-hydroxy-2-oxo-2,4a,5,6,7,8-hexahydro-1H-pyrido[1,2-b]pyridazin-3-yl]-1,1-dioxo-1,4-dihydro-1λ^6-benzo[1,2,4]thiadiazin-7-yl}-methanesulfonamide], the IC50 is < 20 nM.
Same read-out and setting: in the case of `CC(C)(C)CCN1C(=O)C(C2=NS(=O)(=O)c3cc(NS(C)(=O)=O)ccc3N2)=C(O)C2CCCCN21` (stereo not drawn) [Example 2, N-{3-[1-(3,3-Dimethyl-butyl)-4-hydroxy-2-oxo-2,4a,5,6,7,8-hexahydro-1H-pyrido[1,2-b]pyridazin-3-yl]-1,1-dioxo-1,4-dihydro-1λ^6-benzo[1,2,4]thiadiazin-7-yl}-methanesulfonamide] it was 20 to 200 nM; in that of `CC(C)(C)CCN1C(=O)C(C2=NS(=O)(=O)c3cc(NS(C)(=O)=O)ccc3N2)=C(O)C2CCCN21` (stereo not drawn) [Example 3, N-{3-[1-(3,3-Dimethyl-butyl)-4-hydroxy-2-oxo-1,2,4a,5,6,7-hexahydro-pyrrolo[1,2-b]pyridazin-3-yl]-1,1-dioxo-1,4-dihydro-1λ^6-benzo[1,2,4]thiadiazin-7-yl}-methanesulfonamide], < 20 nM.
Same read-out and setting: in the case of `CC(C)(C)CCN1C(=O)C(C2=NS(=O)(=O)c3cc(NS(C)(=O)=O)ccc3N2)=C(O)C2(C)CCCN12` (stereo not drawn) [Example 4, N-{3-[1-(3,3-Dimethyl-butyl)-4-hydroxy-4a-methyl-2-oxo-1,2,4a,5,6,7-hexahydro-pyrrolo[1,2-b]pyridazin-3-yl]-1,1-dioxo-1,4-dihydro-1λ^6-benzo[1,2,4]thiadiazin-7-yl}-methanesulfonamide] it was 20 to 200 nM; in that of `CN1N(CCC(C)(C)C)C(=O)C(C2=NS(=O)(=O)c3cc(NS(C)(=O)=O)ccc3N2)=C(O)C12CCCC2` [Example 5, N-{3-[7-(3,3-Dimethyl-butyl)-10-hydroxy-6-methyl-8-oxo-6,7-diaza-spiro[4.5]dec-9-en-9-yl]-1,1-dioxo-1,4-dihydro-1λ^6-benzo[1,2,4]thiadiazin-7-yl}-methanesulfonamide], 200 to 3000 nM; in that of `CC(C)CCN1C(=O)C(C2=NS(=O)(=O)c3cc(NS(C)(=O)=O)ccc3N2)=C(O)C2CCCN21` (stereo not drawn) [Example 6, N-{3-[4-Hydroxy-1-(3-methyl-butyl)-2-oxo-1,2,4a,5,6,7-hexahydro-pyrrolo[1,2-b]pyridazin-3-yl]-1,1-dioxo-1,4-dihydro-1λ^6-benzo[1,2,4]thiadiazin-7-yl}-methanesulfonamide], < 20 nM.
With `CS(=O)(=O)Nc1ccc2c(c1)S(=O)(=O)N=C(C1=C(O)C3CCCN3N(Cc3ccc(F)cc3)C1=O)N2` (stereo not drawn) [Example 7, N-{3-[1-(4-Fluoro-benzyl)-4-hydroxy-2-oxo-1,2,4a,5,6,7-hexahydro-pyrrolo[1,2-b]pyridazin-3-yl]-1,1-dioxo-1,4-dihydro-1λ^6-benzo[1,2,4]thiadiazin-7-yl}-methanesulfonamide], the IC50 is < 20 nM.
Regarding `CS(=O)(=O)Nc1ccc2c(c1)S(=O)(=O)N=C(C1=C(O)C3C4CCC(C4)N3N(Cc3ccc(F)cc3)C1=O)N2` (stereo not drawn) [Example 9, N-{3-[3-(4-Fluoro-benzyl)-6-hydroxy-4-oxo-2,3-diaza-tricyclo[6.2.1.0^2,7]undec-5-en-5-yl]-1,1-dioxo-1,4-dihydro-1λ^6-benzo[1,2,4]thiadiazin-7-yl}-methanesulfonamide], the 50% inhibitory concentration (IC50) is < 20 nM.
On the same count and under the same terms, the result for `CS(=O)(=O)Nc1ccc2c(c1)S(=O)(=O)N=C(C1=C(O)[C@@H]3C4CCC(CC4)N3N(Cc3ccc(F)cc3)C1=O)N2` [Example 11, (7S)-N-{3-[3-(4-Fluoro-benzyl)-6-hydroxy-4-oxo-2,3-diaza-tricyclo[6.2.2.0^2,7]dodec-5-en-5-yl]-1,1-dioxo-1,4-dihydro-1λ^6-benzo[1,2,4]thiadiazin-7-yl}-methanesulfonamide] reads 20 to 200 nM; that for `CS(=O)(=O)Nc1ccc2c(c1)S(=O)(=O)N=C(C1=C(O)[C@]34C[C@H]3CCN4N(Cc3ccc(F)cc3)C1=O)N2` [Example 12, (1aR,7aS)-N-{3-[4-(4-Fluoro-benzyl)-7-hydroxy-5-oxo-1,1a,2,3,4,5-hexahydro-3a,4-diaza-cyclopropa[c]inden-6-yl]-1,1-dioxo-1,4-dihydro-1λ^6-benzo[1,2,4]thiadiazin-7-yl}-methanesulfonamide], 20 to 200 nM.

Tested on in a further series: not given
Experiment: not given
Details: not given
The term melting point denotes the temperature, or range, at which the solid turns liquid. Regarding `CN1N(CCC(C)(C)C)C(=O)C(C2=NS(=O)(=O)c3cc(NS(C)(=O)=O)ccc3N2)=C(O)C12CCCC2` (as salt: trifluoroacetic acid salt) [Example 5, N-{3-[7-(3,3-Dimethyl-butyl)-10-hydroxy-6-methyl-8-oxo-6,7-diaza-spiro[4.5]dec-9-en-9-yl]-1,1-dioxo-1,4-dihydro-1λ^6-benzo[1,2,4]thiadiazin-7-yl}-methanesulfonamide], the melting point lay in the range of 203.8 to 205.7 °C.
